# Experimental data from ChEMBL document CHEMBL6114943, “Engineered Cyclotide Blocks Neuronal Excitotoxicity” (J Med Chem, 2025).
# Calls of active or inactive are those of the source. The rule behind the calls is not given here. Where a SMILES comes first, the peptide text is derived from it. Bridges are numbered along the chain shown (N, C = ends).
# Experiments:
# Neuron [1] = experiment: Neuroprotective activity against Amyloid beta-induced cell death in mouse primary neuron assessed as cell viability at 100 nM preincubated with compound for 1 hrs followed by Amyloid beta addition and measured after 1 hrs by PI staining based analysis; type: functional; details: time 2.0 hrs
# Mus musculus [2] = experiment: Neuroprotective activity against pilocarpine-induced seizure in C57BL6 mouse assessed as survival rate at 3 nmol/g, iv pretreated with compound for 1 hrs followed by pilocarpine induction and measured after 2 hrs relative to control; type: functional; details: time 3 hrs
# Neuron [3] = experiment: Neuroprotective activity against NMDA-induced cell death in mouse primary neuron assessed as reduction in cell viability at 100 nM preincubated with compound for 1 hrs followed by NMDA addition and measured after 1 hrs by PI staining based analysis (reference value: 60.01 +/- 4%); type: functional; details: time 2 hrs
# Mus musculus [4] = experiment: Neuroprotective activity against pilocarpine-induced seizure in C57BL6 mouse assessed as survival rate at 30 nmol/g, po pretreated with compound for 1 hrs followed by pilocarpine induction and measured after 2 hrs relative to control; type: functional; details: time 3 hrs
# [5] = Toxicity in C57BL/6 mouse assessed as histological changes in liver at 3 nmol/g, iv administered 3 consecutive days by H and E staining based analysis; type: organism-based; details: in vivo
# [6] = Toxicity in C57BL/6 mouse assessed as histological changes in kidney at 3 nmol/g, iv administered 3 consecutive days by H and E staining based analysis; type: organism-based; details: in vivo
# Neuron [7] = experiment: Cytotoxicity against mouse primary neuron upto 1 uM incubated for 24 hrs; type: toxicity, cell-based
# Disks large homolog 4 = Disks large homolog 4 (Homo sapiens, UniProt P78352); experiment: Binding affinity to PSD-95 (unknown origin) assessed as binding constant (Kd) by MST analysis
# [8] = Toxicity in C57BL/6 mouse assessed as histological changes in lung at 3 nmol/g, iv administered 3 consecutive days by H and E staining based analysis; type: organism-based; details: in vivo
# [9] = Toxicity in C57BL/6 mouse assessed as histological changes in spleen at 3 nmol/g, iv administered 3 consecutive days by H and E staining based analysis; type: organism-based; details: in vivo
# Neuron [10] = experiment: Neuroprotective activity against NMDA-induced cell death in mouse primary neuron assessed as reduction in cell viability preincubated with compound for 1 hrs followed by NMDA addition and measured after 1 hrs by PI staining based analysis relative to control; type: functional; details: time 2.0 hrs
# Neuron [11] = experiment: Neuroprotective activity against NMDA-induced cell death in mouse primary neuron assessed as cell viability preincubated with compound for 1 hrs followed by NMDA addition and measured after 1 hrs by PI staining based analysis relative to control; type: functional; details: time 2 hrs
# Neuron [12] = experiment: Neuroprotective activity against Amyloid beta-induced cell death in mouse primary neuron assessed as cell viability preincubated with compound for 1 hrs followed by Amyloid beta addition and measured after 1 hrs by PI staining based analysis relative to control; type: functional; details: time 2 hrs
# Disks large homolog 4, sequence (P78352 whole entry): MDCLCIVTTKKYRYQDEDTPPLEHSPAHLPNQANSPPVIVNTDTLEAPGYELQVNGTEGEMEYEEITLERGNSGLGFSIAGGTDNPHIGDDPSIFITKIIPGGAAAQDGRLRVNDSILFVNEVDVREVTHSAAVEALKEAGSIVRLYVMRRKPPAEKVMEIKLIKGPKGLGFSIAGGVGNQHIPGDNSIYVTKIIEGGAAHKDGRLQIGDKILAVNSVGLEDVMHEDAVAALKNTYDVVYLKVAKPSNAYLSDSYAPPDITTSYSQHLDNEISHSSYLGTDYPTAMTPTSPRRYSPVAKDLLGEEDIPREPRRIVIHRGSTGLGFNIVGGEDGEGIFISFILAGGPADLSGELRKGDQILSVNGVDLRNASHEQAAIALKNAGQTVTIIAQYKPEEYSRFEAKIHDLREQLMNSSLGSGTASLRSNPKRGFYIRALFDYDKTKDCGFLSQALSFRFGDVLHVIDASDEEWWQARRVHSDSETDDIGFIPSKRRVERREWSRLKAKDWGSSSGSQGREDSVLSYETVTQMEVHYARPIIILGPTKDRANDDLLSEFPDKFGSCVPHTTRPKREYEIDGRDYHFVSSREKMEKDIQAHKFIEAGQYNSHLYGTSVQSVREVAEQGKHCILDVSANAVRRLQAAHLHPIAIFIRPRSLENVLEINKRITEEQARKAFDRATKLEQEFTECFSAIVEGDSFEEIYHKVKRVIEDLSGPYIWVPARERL
smiles,measurement,setting,value
CC[C@H](C)[C@H](NC(=O)[C@H](CO)NC(=O)[C@H](CO)NC(=O)[C@H](CC(C)C)NC(=O)[C@H](CCCCN)NC(=O)[C@H](CCCNC(=N)N)NC(=O)[C@H](CCCNC(=N)N)NC(=O)[C@H](CCCNC(=N)N)NC(=O)[C@H](CCC(N)=O)NC(=O)[C@H](CCCNC(=N)N)NC(=O)[C@H](CCCNC(=N)N)NC(=O)[C@H](CCCCN)NC(=O)[C@H](CCCCN)NC(=O)[C@H](CCCNC(=N)N)NC(=O)CNC(=O)[C@@H](N)Cc1ccc(O)cc1)C(=O)N[C@@H](CCC(=O)O)C(=O)N[C@@H](CO)C(=O)N[C@@H](CC(=O)O)C(=O)N[C@H](C(=O)O)C(C)C [NERINETIDE],Activity,Neuron [1],Active
same,Survival,Mus musculus [2],85%
same,Activity,Neuron [3],13.12%
same,Survival,Mus musculus [4],50%
CC[C@H](C)[C@H](NC(=O)[C@H](CO)NC(=O)[C@H](CO)NC(=O)[C@H](CC(C)C)NC(=O)[C@H](CCCCN)NC(=O)[C@H](CCCN=C(N)N)NC(=O)[C@H](CCCN=C(N)N)NC(=O)[C@H](CCCN=C(N)N)NC(=O)[C@H](CCC(N)=O)NC(=O)[C@H](CCCN=C(N)N)NC(=O)[C@H](CCCN=C(N)N)NC(=O)[C@H](CCCCN)NC(=O)[C@H](CCCCN)NC(=O)[C@H](CCCN=C(N)N)NC(=O)CNC(=O)[C@@H](N)Cc1ccc(O)cc1)C(=O)N[C@@H](CCC(=O)O)C(=O)N[C@@H](CO)C(=O)N[C@@H](CC(=O)O)C(=O)N[C@H](C(=O)O)C(C)C [NERINETIDE],Activity,[5],Non-toxic
same,Activity,[6],Non-toxic
same,Activity,Neuron [7],Non-toxic
same,Kd,Disks large homolog 4,1.2 µM
same,Activity,[8],Non-toxic
same,Activity,[9],Non-toxic
"CC[C@H](C)[C@@H]1NC(=O)[C@H](CO)NC(=O)[C@H](CO)NC(=O)[C@H](CC(C)C)NC(=O)[C@H](CCCCN)NC(=O)[C@@H]2CSSC[C@@H]3NC(=O)[C@H](CC(=O)O)NC(=O)[C@H](CO)NC(=O)[C@H](CC(=O)O)NC(=O)[C@H](CCCNC(=N)N)NC(=O)[C@H](CCCNC(=N)N)NC(=O)[C@@H]4CSSC[C@H](NC(=O)[C@H]([C@@H](C)CC)NC(=O)[C@H](CSSC[C@H](NC(=O)[C@H](C)NC(=O)[C@H](CC(=O)O)NC(=O)[C@H](C)NC(=O)[C@H](CCC(=O)O)NC1=O)C(=O)N1CCC[C@H]1C(=O)N[C@@H](CCCNC(=N)N)C(=O)N[C@@H]([C@@H](C)CC)C(=O)N[C@@H](CC(C)C)C(=O)N[C@@H](CCCNC(=N)N)C(=O)N[C@@H](CCCNC(=N)N)C(=O)N[C@@H](CCCNC(=N)N)C(=O)N[C@@H](CCCNC(=N)N)C(=O)N4)NC(=O)[C@H](C)NC(=O)CNC(=O)[C@@H]1CCCN1C3=O)C(=O)N[C@@H](CCCNC(=N)N)C(=O)NCC(=O)N[C@@H](CC(N)=O)C(=O)NCC(=O)N[C@@H](Cc1ccc(O)cc1)C(=O)N2 (cyclo(ACICRGNGYCKLSSIEADACPRILRRRRCRRDSDCPG); disulfide 2-20, 4-29, 10-35)",Activity,Neuron [10],inactive
same,Activity,Neuron [7],Non-toxic
same,Survival,Mus musculus [2],30%
"CC[C@H](C)[C@@H]1NC(=O)[C@@H]2CSSC[C@@H]3NC(=O)[C@H](C(C)C)NC(=O)[C@H](CC(=O)O)NC(=O)[C@H](CO)NC(=O)[C@H](CCC(=O)O)NC(=O)[C@H]([C@@H](C)CC)NC(=O)[C@H](CO)NC(=O)[C@H](CO)NC(=O)[C@H](CC(C)C)NC(=O)[C@H](CCCCN)NC(=O)[C@@H]4CSSC[C@H](NC(=O)[C@H](CC(=O)O)NC(=O)[C@H](CO)NC(=O)[C@H](CC(=O)O)NC(=O)[C@H](CCCNC(=N)N)NC(=O)[C@H](CCCNC(=N)N)NC(=O)[C@H](CSSC[C@H](NC1=O)C(=O)N[C@@H](CCCNC(=N)N)C(=O)NCC(=O)N[C@@H](CC(N)=O)C(=O)NCC(=O)N[C@@H](Cc1ccc(O)cc1)C(=O)N4)NC(=O)[C@H](CCCCN)NC(=O)[C@H](CCCCN)NC(=O)[C@H](CC(C)C)NC(=O)[C@H]([C@@H](C)CC)NC(=O)[C@H](CCCCN)NC(=O)[C@@H]1CCCN1C3=O)C(=O)N1CCC[C@H]1C(=O)NCC(=O)N[C@@H](C)C(=O)N2 (cyclo(ACICRGNGYCKLSSIESDVCPKILKKCRRDSDCPG); disulfide 2-20, 4-27, 10-33)",Activity,Neuron [11],31.8%
same,Activity,Neuron [12],32.6%
